These results are taken from PubChem BioAssay (NCI).

Test systems include UACC-62 melanoma; SW-620 colon; HOP-92 NSCLC; NCI/ADR-RES ovarian; OVCAR-8 ovarian; T-47D breast; UACC-257 melanoma; K-562 leukemia; M14 melanoma; SNB-75 CNS.
Assay in all cases: NCI anticancer screen, dose series, 48 h

Several values for one entry are separate records, joined by “and”; a condition that tells them apart may be missing. Identical values can stand only once.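 Interpolation was linear, between the two tested concentrations surrounding the appropriate level; five concentrations were tested over 48 hours in 96-well plates. GI50: concentration for 50% inhibition of growth. TGI: total growth inhibition.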

As for `Nc1c2ccccc2nc2ccccc12`, the GI50 in the assay on UACC-62 melanoma was 1.51 µM and 2.42 µM; with SW-620 colon, 1.06 µM and 3.06 µM; in the assay on HOP-92 NSCLC it was 1.63 µM and 3.71 µM; in the assay with NCI/ADR-RES ovarian it was 1.44 µM and 1.48 µM; in the assay on OVCAR-8 ovarian it was 0.626 µM and 3.53 µM; in the assay on T-47D breast, 1.62 µM and 2.99 µM. Also, the GI50 in the assay on UACC-257 melanoma was 1.54 µM and 3.21 µM; in the assay with K-562 leukemia it was 3.16 µM and 3.06 µM; with M14 melanoma it was 1.7 µM and 3.21 µM; in the assay with SNB-75 CNS, 2.46 µM and 3.11 µM. The TGI with UACC-62 melanoma was 3.45 µM and 6.88 µM; with SW-620 colon, 5.95 µM and 22.6 µM; in the assay on HOP-92 NSCLC, 4.82 µM and 23.2 µM; in the assay on NCI/ADR-RES ovarian, 5.35 µM and 6.21 µM; in the assay on OVCAR-8 ovarian it was 5.14 µM and 34.3 µM; with T-47D breast, 6.38 µM and 7.61 µM. In addition, the TGI is 3.06 µM and 10.1 µM in the assay with UACC-257 melanoma; 12.5 µM and 25.1 µM in the assay on K-562 leukemia; 3.48 µM and 10 µM with M14 melanoma; 6 µM and 10.4 µM in the assay with SNB-75 CNS.
Turning to `C=C1C(=O)O[C@H]2[C@H]1CC/C(COC(=O)NCc1ccc(Cn3c(=O)sn(CCCI)c3=O)cc1)=C\CC[C@@]1(C)O[C@@H]21`, the GI50 in the assay on UACC-62 melanoma was 1.41 µM; in the assay with SW-620 colon, 1.4 µM; in the assay with HOP-92 NSCLC it was 1.22 µM; with NCI/ADR-RES ovarian, 28.1 µM; with OVCAR-8 ovarian it was 3.04 µM; in the assay on T-47D breast, 1.79 µM. Besides, the values for the GI50 in the assay on UACC-257 melanoma, in the assay with K-562 leukemia and with M14 melanoma were 1.79 µM, 0.342 µM and 1.74 µM, respectively. The TGI in the assay on UACC-62 melanoma was 2.88 µM; in the assay with SW-620 colon, 3.17 µM; in the assay with HOP-92 NSCLC it was 2.83 µM; in the assay on NCI/ADR-RES ovarian it was greater than 100 µM; in the assay on OVCAR-8 ovarian it was 9.87 µM; in the assay with T-47D breast, 3.84 µM. The values for the TGI with UACC-257 melanoma, with K-562 leukemia and in the assay with M14 melanoma were 3.67 µM, greater than 100 µM and 4.69 µM, respectively.
For `Nc1nc(N)c2nc(CNc3ccc(C(=O)NC(CCC(=O)O)C(=O)O)cc3)cnc2n1` (configuration not stated), the GI50 was 0.0274 µM and < 0.01 µM in the assay with UACC-62 melanoma; less than 0.01 µM with SW-620 colon; greater than 100 µM in the assay on HOP-92 NSCLC; less than 0.01 µM in the assay with NCI/ADR-RES ovarian; less than 0.01 µM in the assay with OVCAR-8 ovarian; 0.316 µM and 1.37 µM in the assay on T-47D breast. Moreover, the GI50 with UACC-257 melanoma was 0.0942 µM and 0.0723 µM; in the assay on K-562 leukemia it was less than 0.01 µM; with M14 melanoma, less than 0.01 µM. Besides, the TGI with UACC-62 melanoma, in the assay on SW-620 colon, in the assay with HOP-92 NSCLC, in the assay on NCI/ADR-RES ovarian, with OVCAR-8 ovarian and in the assay on T-47D breast was greater than 100 µM in each case. For the same compound, the TGI in the assay on UACC-257 melanoma, in the assay with K-562 leukemia, in the assay with M14 melanoma and with SNB-75 CNS was greater than 100 µM each time.
As for `CN1CC[C@H](N(C)C(=O)N2CC(c3cc(F)ccc3F)=C[C@@]2(CO)c2ccccc2)[C@H](F)C1`, the GI50 in the assay on UACC-62 melanoma was 0.0386 µM; with SW-620 colon it was 0.00854 µM; in the assay with HOP-92 NSCLC it was 0.143 µM; in the assay with NCI/ADR-RES ovarian it was 0.0205 µM; in the assay with OVCAR-8 ovarian, 0.058 µM; with T-47D breast, 0.0635 µM. In addition, the values for the GI50 in the assay with K-562 leukemia, with M14 melanoma and in the assay with SNB-75 CNS were 0.00744 µM, 0.00202 µM and 0.0402 µM, respectively. Besides, the TGI in the assay with UACC-62 melanoma is 25 µM; in the assay with SW-620 colon, greater than 100 µM; in the assay with HOP-92 NSCLC, 79.7 µM; in the assay with NCI/ADR-RES ovarian it was 1.3 µM; in the assay on OVCAR-8 ovarian, greater than 100 µM; with T-47D breast, greater than 100 µM. For the same compound, the TGI in the assay on UACC-257 melanoma is 41.4 µM; in the assay on K-562 leukemia, greater than 100 µM; in the assay with M14 melanoma, 0.00507 µM; in the assay with SNB-75 CNS, 34.9 µM.
Regarding `OC1(c2ccccc2)c2ccccc2N(c2ccccc2)c2ccc(Cl)cc21` (configuration not stated), the GI50 in the assay on UACC-62 melanoma was 0.195 µM; in the assay on SW-620 colon, 0.197 µM; with HOP-92 NSCLC it was 0.214 µM; with NCI/ADR-RES ovarian, 1.55 µM; in the assay on OVCAR-8 ovarian it was 0.287 µM; in the assay with T-47D breast it was 0.103 µM. For the same compound, the GI50 with UACC-257 melanoma was 0.201 µM; with K-562 leukemia, 0.18 µM; in the assay with M14 melanoma, 0.249 µM; with SNB-75 CNS, 0.293 µM. Also, the TGI with UACC-62 melanoma is 0.452 µM; with SW-620 colon, 0.491 µM; with HOP-92 NSCLC, 0.703 µM; in the assay on NCI/ADR-RES ovarian it was 6.23 µM; in the assay on OVCAR-8 ovarian, 1.25 µM; in the assay with T-47D breast it was 0.282 µM. Also, the TGI with UACC-257 melanoma worked out at 0.72 µM; in the assay with K-562 leukemia, 1.14 µM; in the assay with M14 melanoma, 0.694 µM; with SNB-75 CNS, 1.11 µM.
Consider `CC1SC(c2ccc(OCc3ccccc3)cc2)N(NC(=O)C(O)(c2ccccc2)c2ccccc2)C1=O` (configuration not stated), for which the GI50 was 3.69 µM in the assay on UACC-62 melanoma; 3.61 µM in the assay with SW-620 colon; 1.14 µM with HOP-92 NSCLC; 3.72 µM in the assay on NCI/ADR-RES ovarian; 12.7 µM with OVCAR-8 ovarian; 3.52 µM with T-47D breast. For the same compound, the figures for the GI50 in the assay on UACC-257 melanoma, with K-562 leukemia and in the assay with SNB-75 CNS were 7.39 µM, 3.36 µM and 3.72 µM, respectively. Also, the TGI in the assay with UACC-62 melanoma is 16 µM; in the assay with SW-620 colon, 12.7 µM; in the assay with HOP-92 NSCLC it was 4.74 µM; with NCI/ADR-RES ovarian it was 17.8 µM; in the assay with OVCAR-8 ovarian it was 38.6 µM; with T-47D breast it was 14.9 µM. For the same compound, the TGI is 21.3 µM in the assay on UACC-257 melanoma, greater than 100 µM in the assay on K-562 leukemia and 18.1 µM in the assay with SNB-75 CNS.
With `COc1ccc(-c2cc(-c3ccc(Cl)cc3)c(C#N)c(=O)n2CCCCCC(=O)Nc2ccccc2N)cc1`, the GI50 in the assay on UACC-62 melanoma was 2.4 µM; in the assay with SW-620 colon, 3.87 µM; in the assay on HOP-92 NSCLC, 1.96 µM; in the assay with NCI/ADR-RES ovarian, 3.99 µM; in the assay on OVCAR-8 ovarian, 4.31 µM; with T-47D breast it was 3.33 µM. Also, the GI50 with K-562 leukemia is 3.37 µM; in the assay with M14 melanoma, 2.44 µM; with SNB-75 CNS, 1.4 µM. In addition, the TGI in the assay on UACC-62 melanoma was 8.56 µM; with SW-620 colon it was greater than 100 µM; in the assay on HOP-92 NSCLC, 9.93 µM; with NCI/ADR-RES ovarian, greater than 100 µM; in the assay with OVCAR-8 ovarian it was greater than 100 µM; in the assay on T-47D breast it was greater than 100 µM. Also, the TGI in the assay with K-562 leukemia was greater than 100 µM; with M14 melanoma it was 6.57 µM; in the assay with SNB-75 CNS it was 5.83 µM.
